From patent US20220280661A1, “GLUCOCORTICOID RECEPTOR RADIOLIGANDS AND METHODS FOR THEIR PREPARATION AND USE” (The Regents of the University of California, priority 2019, published 2022)
pKd: −log10 of the molar value. Values joined by “and” are separate entries in the source; they are usually repeats but may differ in a detail not shown here. Equal values may be shown once. Read-outs that look alike come from different tables or passages of the source. Each block holds one compound with its values, some of them ahead of it.

Legend:
[1] = from 90 min dynamic PET in C57B16/J mice
Description: Normal Tissue Radiation Dose Estimation. Volumes of interest (VOIs) were drawn on coregistered CT images for brain, lungs, heart, liver, stomach, kidneys, and urinary bladder. All VOIs were either elliptical cylinder (5 mm long axis, 3 mm short axis, and 5 mm height for the brain), cylinders (3 mm diameter and 3 mm height for kidneys), or spheres (3 mm diameter for lungs, heart, liver, stomach, and urinary bladder), and they were placed well within the anatomical boundaries to minimize spill-over or spill-in of radioactivity. The mean values (in Bq/ml) in these VOIs were multiplied by standard mouse organ volumes (in ml) to estimate total activity (in Bq) within these organs. The total activity within the entire animal subtracted by all organ activities was used as activity in the remainder of the body. The percent of injected activity within the defined organs (% IA) was extrapolated to human-equivalent values using ratios of standard human organ weights to mouse organ weights.
These input % IA data for each organ and the remainder of the body were curve-fitted to derive time-integrated activity coefficients (also known as residence times) (in Bq-hr/Bq) and organ and whole-body effective doses for human equivalents were estimated using each mouse data. The data from the three animals were averaged to derive absorbed organs doses (in mGy/MBq) and whole-body effective dose (in mSv/MBq). Organ and effective dose estimations were performed using OLINDA version 2.0 using ICRP Publication 103 tissue weighting factors.
To explore the potential of (±)-^11C-YJH08 for human translation, a rodent dosimetry study was conducted in male and female C57B16/J mice ([…]). The human equivalent doses for an average adult male (73 kg) or an average adult female (60 kg) were calculated using OLINDA 2.0 incorporating ICRP103 tissue weighting factors based on region of interest analysis from 90 min dynamic PET acquisitions (Table 11). […] The values were calculated from a 90 min dynamic PET acquisition in intact male or female C57B16/J mice.

PR = target: T1, PR (Homo sapiens, UniProt P06401); assay: 3H-ligand displacement assay on cells, PR (MCF7); format: binding
T1 construct: MCF7 (PR, ER); endogenous in cells; host or cells: MCF7
T1 sequence (P06401 1-933): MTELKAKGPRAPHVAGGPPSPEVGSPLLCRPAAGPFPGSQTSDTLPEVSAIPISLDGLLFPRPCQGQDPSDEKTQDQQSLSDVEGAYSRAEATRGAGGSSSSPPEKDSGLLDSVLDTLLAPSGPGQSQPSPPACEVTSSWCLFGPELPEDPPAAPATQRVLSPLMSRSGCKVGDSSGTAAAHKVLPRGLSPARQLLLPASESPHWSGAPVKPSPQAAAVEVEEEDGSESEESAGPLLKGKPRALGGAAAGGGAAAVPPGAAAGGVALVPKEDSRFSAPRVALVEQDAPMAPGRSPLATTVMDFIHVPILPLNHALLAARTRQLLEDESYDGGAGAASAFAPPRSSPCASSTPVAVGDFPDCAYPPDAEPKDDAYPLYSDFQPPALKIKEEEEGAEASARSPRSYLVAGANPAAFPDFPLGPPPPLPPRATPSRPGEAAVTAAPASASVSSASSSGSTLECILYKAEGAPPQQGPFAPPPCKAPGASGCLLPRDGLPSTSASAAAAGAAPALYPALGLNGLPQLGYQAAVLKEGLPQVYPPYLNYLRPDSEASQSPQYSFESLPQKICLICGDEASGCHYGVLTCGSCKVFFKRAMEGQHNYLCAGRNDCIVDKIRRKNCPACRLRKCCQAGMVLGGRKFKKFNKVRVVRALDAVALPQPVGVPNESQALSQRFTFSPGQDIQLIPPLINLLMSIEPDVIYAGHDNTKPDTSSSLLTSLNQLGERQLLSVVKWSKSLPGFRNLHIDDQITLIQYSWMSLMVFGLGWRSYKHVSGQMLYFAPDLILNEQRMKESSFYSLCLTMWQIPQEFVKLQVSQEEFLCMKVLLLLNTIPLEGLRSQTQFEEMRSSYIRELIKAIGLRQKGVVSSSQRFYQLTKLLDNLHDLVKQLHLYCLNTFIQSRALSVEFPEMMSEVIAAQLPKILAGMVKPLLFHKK
Protocol: The affinity of YJH08 for GR and the other type 1 subfamily 3 nuclear hormone receptors was evaluated using ^3H-ligand displacement assays on cells. The Kd for subfamily 3 class C nuclear hormone receptors was determined on cells by displacing ^3H-steroidal agonists for the respective receptor. […] The Kd was determined using the following cell lines: DU145 (GR), LNCaP-AR (AR), MCF7 (PR, ER), and HEK293 transiently overexpressing full length human MR.
The cold ligands and ^3H-steroids were co-incubated on cells in PBS at room temperature for one hour. Following incubation, the cells were washed twice with ice cold PBS and the unbound activity was retained for analysis. The cells were lysed with 1 mL of 1M NaOH and collected. Bound and unbound fractions were counted in a liquid scintillation counter and expressed as a percentage of the total activity added per equal relative number of cells. […] These experiments were performed at three concentrations of experimental ligand (1 pM, 100 nM and 10 μM), and a linear extrapolation was used to subtract the non-specific component of binding from each treatment condition. The specific binding component was plotted against the log of the competing ligand and curve fit using a non-linear regression algorithm with PRISM software.

Structure (SMILES): CC1=CC(C)(C)Nc2ccc3c(c21)C(Cc1ccc(F)cc1)Oc1cccc(O[11CH3])c1-3 (racemic) [(±)-^11C-YJH08]
Effective Dose (whole-body) ([1]; Adult female (60 kg)): 0.0065±0.004 mSv/MBq and 0.00649 ± 0.000433 mSv/MBq
human equivalent absorbed dose, Adrenals ([1]; Adult female (60 kg)): 0.00578 ± 0.000156 mGy/MBq
human equivalent absorbed dose, Brain ([1]; Adult female (60 kg)): 0.00229 ± 0.000078 mGy/MBq
human equivalent absorbed dose, Breasts ([1]; Adult female (60 kg)): 0.00286 ± 0.000129 mGy/MBq
human equivalent absorbed dose, Esophagus ([1]; Adult female (60 kg)): 0.00544 ± 0.000439 mGy/MBq
human equivalent absorbed dose, Eyes ([1]; Adult female (60 kg)): 0.00223 ± 0.000061 mGy/MBq
human equivalent absorbed dose, Gallbladder Wall ([1]; Adult female (60 kg)): 0.00459 ± 0.000041 mGy/MBq
human equivalent absorbed dose, Heart Wall ([1]; Adult female (60 kg)): 0.0257 ± 0.005677 mGy/MBq
human equivalent absorbed dose, Kidneys ([1]; Adult female (60 kg)): 0.00785 ± 0.001344 mGy/MBq
human equivalent absorbed dose, Left colon ([1]; Adult female (60 kg)): 0.00437 ± 0.000314 mGy/MBq
human equivalent absorbed dose, Liver ([1]; Adult female (60 kg)): 0.01863 ± 0.001258 mGy/MBq
human equivalent absorbed dose, Lungs ([1]; Adult female (60 kg)): 0.00909 ± 0.000339 mGy/MBq
human equivalent absorbed dose, Osteogenic Cells ([1]; Adult female (60 kg)): 0.00217 ± 0.000069 mGy/MBq
human equivalent absorbed dose, Ovaries ([1]; Adult female (60 kg)): 0.00288 ± 0.000090 mGy/MBq
human equivalent absorbed dose, Pancreas ([1]; Adult female (60 kg)): 0.00545 ± 0.000182 mGy/MBq
human equivalent absorbed dose, Rectum ([1]; Adult female (60 kg)): 0.0028 ± 0.000087 mGy/MBq
human equivalent absorbed dose, Red Marrow ([1]; Adult female (60 kg)): 0.00289 ± 0.000101 mGy/MBq
human equivalent absorbed dose, Right colon ([1]; Adult female (60 kg)): 0.00339 ± 0.000070 mGy/MBq
human equivalent absorbed dose, Salivary Glands ([1]; Adult female (60 kg)): 0.00241 ± 0.000068 mGy/MBq
human equivalent absorbed dose, Small Intestine ([1]; Adult female (60 kg)): 0.00325 ± 0.000114 mGy/MBq
human equivalent absorbed dose, Spleen ([1]; Adult female (60 kg)): 0.00432 ± 0.0003 mGy/MBq
human equivalent absorbed dose, Stomach Wall ([1]; Adult female (60 kg)): 0.01925 ± 0.002944 mGy/MBq
human equivalent absorbed dose, Thymus ([1]; Adult female (60 kg)): 0.00498 ± 0.000454 mGy/MBq
human equivalent absorbed dose, Thyroid ([1]; Adult female (60 kg)): 0.00297 ± 0.000118 mGy/MBq
human equivalent absorbed dose, Total Body ([1]; Adult female (60 kg)): 0.00366 ± 0.000121 mGy/MBq
human equivalent absorbed dose, Urinary Bladder Wall ([1]; Adult female (60 kg)): 0.00288 ± 0.000114 mGy/MBq
human equivalent absorbed dose, Uterus ([1]; Adult female (60 kg)): 0.00284 ± 0.000085 mGy/MBq
Effective Dose (whole-body) ([1]; Adult male (73 kg)): 0.0067±0.002 mSv/MBq and 0.00673 ± 0.002757 mSv/MBq
human equivalent absorbed dose, Adrenals ([1]; Adult male (73 kg)): 0.00533 ± 0.000748 mGy/MBq
human equivalent absorbed dose, Brain ([1]; Adult male (73 kg)): 0.0014 ± 0.000022 mGy/MBq
human equivalent absorbed dose, Esophagus ([1]; Adult male (73 kg)): 0.00831 ± 0.004249 mGy/MBq
human equivalent absorbed dose, Eyes ([1]; Adult male (73 kg)): 0.00194 ± 0.000092 mGy/MBq
human equivalent absorbed dose, Gallbladder Wall ([1]; Adult male (73 kg)): 0.00602 ± 0.000876 mGy/MBq
human equivalent absorbed dose, Heart Wall ([1]; Adult male (73 kg)): 0.06753 ± 0.05072 mGy/MBq
human equivalent absorbed dose, Kidneys ([1]; Adult male (73 kg)): 0.00714 ± 0.000174 mGy/MBq
human equivalent absorbed dose, Left colon ([1]; Adult male (73 kg)): 0.00374 ± 0.000769 mGy/MBq
human equivalent absorbed dose, Liver ([1]; Adult male (73 kg)): 0.01568 ± 0.001377 mGy/MBq
human equivalent absorbed dose, Lungs ([1]; Adult male (73 kg)): 0.0135 ± 0.01113 mGy/MBq
human equivalent absorbed dose, Osteogenic Cells ([1]; Adult male (73 kg)): 0.00223 ± 0.000391 mGy/MBq
human equivalent absorbed dose, Pancreas ([1]; Adult male (73 kg)): 0.00665 ± 0.002374 mGy/MBq
human equivalent absorbed dose, Prostate ([1]; Adult male (73 kg)): 0.0025 ± 0.000105 mGy/MBq
human equivalent absorbed dose, Rectum ([1]; Adult male (73 kg)): 0.00249 ± 0.000093 mGy/MBq
human equivalent absorbed dose, Red Marrow ([1]; Adult male (73 kg)): 0.0031 ± 0.000771 mGy/MBq
human equivalent absorbed dose, Right colon ([1]; Adult male (73 kg)): 0.00367 ± 0.000548 mGy/MBq
human equivalent absorbed dose, Salivary Glands ([1]; Adult male (73 kg)): 0.00226 ± 0.000156 mGy/MBq
human equivalent absorbed dose, Small Intestine ([1]; Adult male (73 kg)): 0.00325 ± 0.000446 mGy/MBq
human equivalent absorbed dose, Spleen ([1]; Adult male (73 kg)): 0.00378 ± 0.000828 mGy/MBq
human equivalent absorbed dose, Stomach Wall ([1]; Adult male (73 kg)): 0.01628 ± 0.005962 mGy/MBq
human equivalent absorbed dose, Testes ([1]; Adult male (73 kg)): 0.00204 ± 0.000046 mGy/MBq
human equivalent absorbed dose, Thymus ([1]; Adult male (73 kg)): 0.01004 ± 0.005999 mGy/MBq
human equivalent absorbed dose, Thyroid ([1]; Adult male (73 kg)): 0.00355 ± 0.00107 mGy/MBq
human equivalent absorbed dose, Total Body ([1]; Adult male (73 kg)): 0.00355 ± 0.000856 mGy/MBq
human equivalent absorbed dose, Urinary Bladder Wall ([1]; Adult male (73 kg)): 0.00247 ± 0.000136 mGy/MBq

pKd (PR): 6.26
Structure (SMILES): COc1cccc2c1-c1ccc3c(c1C(Cc1ccc(F)cc1)O2)C(C)=CC(C)(C)N3 (racemic) [YJH08, 5-(4-fluorobenzyl)-10-methoxy-2,2,4-trimethyl-2,5-dihydro-1H-chromeno[3,4-f]quinoline]
